Reference: US20090233913A1, “OPTICAL ISOMERS OF DIHYDRO-2,3-BENZODIAZEPINES AND THEIR STEREOSELECTIVE SYNTHESIS” (priority 2005, published 2009)

How the values were obtained:
[1] = tested on: female Wistar rats; experiment: Toxicity test in rats: histological atrophy of thymus and bone-marrow after seven-day p.o. treatment; assay type: in vivo, rat; conditions: for thymus cortex atrophy (scores): female Wistar rats, 30 mg/kg p.o. once daily for seven days, score 0 (no change) to 4 (severe), average ± deviation of the average; for bone-marrow atrophy (scores): female, Wistar, po, 30 mg/kg, 7 days; for bone-marrow atrophy (scores) / effect on the hystological pictures of the thymus and bone-marrow (in words): rat, in vivo
Description: The examination was carried out using female Wistar rats. One day before the treatment the animals were assigned to randomised groups based on their weight (10 animals/group). Each active ingredient was suspended in a solution of 0.4% hydroxypropylmethylcellulose (Methocell F4 M, Dow Chemical Company, USA) and administered once daily for seven days by gastric-canule. The daily doses were 30 mg/kg, the animals of the control group were treated with the solvent. At the end of the experiments the animals were sacrificed by incising of the arteries of thigh in narcosis caused by ether.
After the thymus-ectomy thymi were fixed in a solution of formaline buffered with phosphate, then embedded in paraffin, pigmented with hemalaun-eosin.
Bone-marrow film preparations were made from the femur of the animals and pigmented according to Grimsa method (Sheenan D. C.-Hrapchak B. B.: Theory and practice of histotechnology (2nd ed.) Mosby Company, St. Louis, USA 1980).
The histological athrophy was scored as follows: 0—there is no change, 1—change appears, 2—slight change, 3—middle severe change, marked change, 4—severe, obvious, wide change. The rating was accomplished blind without any information about the treatment.
Groups were compared by KRUSKAL WALLIS ANOVA test (Ranks and Median). In case of significant deviation (p<0.05) WALD-WOLFOWITZ test was used for comparison.

[2] = tested on: male Wistar rats; experiment: Measurement of plasma corticosterone concentration in the rat (radio-immunoassay); assay type: in vivo; conditions: treatment per os, 15 mg/kg
Description: Examinations were carried out by using male wistar rats weighing 250-300 g. The animals were kept in an air-conditioned room, 12 hours artificial daylight was followed by 12 hours darkness. For four days prior to the experiments the animals got 0.5 ml water daily by a gastric-canule. The weight of the animals was measured at the evening before the experiments, then the animals were placed in separate cages.
Experiments were accomplished in the morning between 9 and 12 hours.
Before the treatment the animals were randomized to groups (7 animals/group)
The tested compounds were administered in a 15 mg/body weight kg dose, in 5 ml/kg solvent volume, using gastric-canule. The control animals were treated with solvent. The solvent composition contained 0.2 ml of 2.5 M HCl and 19.8 ml of distilled water.
After one hour of the treatment the animals were decapitated and about 2 ml of blood were collected in an ice-cold test tube containing 100 μl of 2% (WN) K-EDTA.
For the determination of corticosterone concentration, a corticosterone-3-CMO-BSA anti-body prepared in rabbit was used in a dilution of 1:40000. The antibody cross-reaction with desoxycorticosteron was 1.5%; with progesterone it was 2.3%. […]
The corticosterone concentration was measured from 10 μl plasma without extraction. […] The radioactivity was measured with LKB Clinigamma apparatus. […]

[3] = tested on: AMPA receptor; experiment: Spreading depression (SD) test in the chicken retina, in vitro; assay type: cell-based; conditions: antagonism of SD latency generated by 5 μM S-AMPA, isolated chicken retina, 30-minute incubation, room temperature; average ± deviation of the average
Description: The test was carried out according to method of Sheardown (1993).
Isolated eye-cups of 5-7 days old chickens (Shaver red-brow) were used. The sexes of the chickens were unidentified. Eyes of the animals were enucleated in narcosis caused by etherization, then the back sides of the eyes were cut and put in nutrient solution.
The composition of the medium is 100 mM NaCl, 3 mM KCl, 1 mM MgSO4, 1 mM CaCl2, 30 mM NaHCO3, 1 mM NaH2PO4 10 mM D-glukose, pH=7.3.
The spreading depression (SD) latency generated by 5 μM S-AMPA is determined at room temperature followed by a 90-minute stabilisation period. This value was considered as control value. Then the latency caused by AMPA was measured following a 30-minute incubation period in the presence of the test compound, then followed by further 60 minutes washing the recursion of the latency time to the control value was checked.
The elongation of the control latency with 30 sec corresponds to 100% antagonism. • Literature: Sheardown, M. J.: The triggering of spreading depression in the chicken retina: a pharmacological study. Brain Research 1993, 607: 189-194.

With `CC(=O)N1N=C(c2ccc(N)c(C)c2)c2cc3c(cc2C[C@@H]1C)OCO3` [Example 6, (S)-(+)-7-Acetyl-5-(4-amino-3-methylphenyl)-8-methyl-8,9-dihydro-7H-1,3-dioxolo[4,5-h][2,3] benzodiazepine] the “thymus cortex atrophy (scores)” value [1] was 2.9 ± 0.43 scores, the “bone-marrow atrophy (scores)” value [1] was 2.1 ± 0.31 scores and the “effect on the hystological pictures of the thymus and bone-marrow (in words)” value [1] was “caused significant hystological atrophy in the thymus and the bone-marrow”.

In the case of `CC(=O)N1N=C(c2ccc(N)c(C)c2)c2cc(Cl)ccc2C[C@@H]1C` [Example 16, (S)-(+)-3-acetyl-1-(4-amino-3-methylphenyl)-8-chloro-4-methyl-4,5-dihydro-3H-2,3-benzodiazepine], the “effect on the plasma corticosterone concentration (in words)” value [2] is reported as “elevated the plasma corticosterone concentration”.

For `CC(=O)N1N=C(c2ccc(N)c(C)c2)c2cc3c(cc2C[C@H]1C)OCO3` [Example 4, (R)-(−)-7-acetyl-5-(4-amino-3-methylphenyl)-8-methyl-8,9-dihydro-7H-1,3-dioxolo[4,5-h][2,3] benzodiazepine], the EC50 [3] was 1800 ± 100 nM, the “thymus cortex atrophy (scores)” value [1] was 0.30 ± 0.21 scores and the “bone-marrow atrophy (scores)” value [1] was 0.40 ± 0.27 scores. For the same compound, the “effect on the hystological pictures of the thymus and bone-marrow (in words)” value [1] was “only in a minimal degree”.

With `CC(=O)N1N=C(c2ccc(N)c(C)c2)c2cc(Cl)ccc2C[C@H]1C` [Example 15, (R)-(−)-3-acetyl-1-(4-amino-3-methylphenyl)-8-chloro-4-methyl-4,5-dihydro-3H-2,3-benzodiazepine] the EC50 [3] was 3900 ± 200 nM and the “effect on the plasma corticosterone concentration (in words)” value [2] was “did not affect the plasma corticosterone concentration”.
